These results are taken from paper PMC11055700 (Chemicke Zvesti, 2024).

For experiment [1], the target named is T1, SARS-CoV-2 Spike-RBD (ancestral, WT) / ACE2 (Homo sapiens, UniProt Q9BYF1).
T1 construct: a SARS-CoV-2 RBD protein containing a C-terminal His tag; a full-length ACE2 peptide with a C-terminal Fc tag; purchased Sino Biological
Put plainly: biochemical. It is filed as binding.

In experiment [2] the target is T2, SARS-CoV-2 Spike-RBD (lambda) / ACE2 (Homo sapiens, UniProt Q9BYF1).
T2 construct: a SARS-CoV-2 RBD protein containing a C-terminal His tag; a full-length ACE2 peptide with a C-terminal Fc tag; purchased Sino Biological
Put plainly: biochemical. Type of experiment: binding.

Where two headings read alike, the source gives them in different places.

T1 sequence (Q9BYF1 18-740): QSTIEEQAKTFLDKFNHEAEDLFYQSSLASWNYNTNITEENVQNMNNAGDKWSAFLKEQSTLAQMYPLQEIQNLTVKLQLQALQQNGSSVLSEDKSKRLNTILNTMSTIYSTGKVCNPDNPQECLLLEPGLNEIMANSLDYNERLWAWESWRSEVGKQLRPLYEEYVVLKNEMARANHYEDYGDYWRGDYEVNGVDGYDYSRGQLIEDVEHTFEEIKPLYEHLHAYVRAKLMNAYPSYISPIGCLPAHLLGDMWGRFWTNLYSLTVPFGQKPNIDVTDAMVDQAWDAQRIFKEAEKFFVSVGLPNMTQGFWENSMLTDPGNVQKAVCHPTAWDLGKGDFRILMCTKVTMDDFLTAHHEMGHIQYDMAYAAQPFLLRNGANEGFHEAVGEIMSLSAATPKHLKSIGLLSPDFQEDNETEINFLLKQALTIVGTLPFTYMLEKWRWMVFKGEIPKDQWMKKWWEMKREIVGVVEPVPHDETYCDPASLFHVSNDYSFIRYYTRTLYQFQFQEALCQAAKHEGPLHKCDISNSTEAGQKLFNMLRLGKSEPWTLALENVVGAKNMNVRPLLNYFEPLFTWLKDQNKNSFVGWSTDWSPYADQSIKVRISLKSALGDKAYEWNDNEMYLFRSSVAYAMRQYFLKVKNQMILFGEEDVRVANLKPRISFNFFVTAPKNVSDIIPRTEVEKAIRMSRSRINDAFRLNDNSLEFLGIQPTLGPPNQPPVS
T2 sequence (Q9BYF1 18-740): as above

For `O=C1Nc2ccc(Cl)cc2C1=NNc1ccc([N+](=O)[O-])cc1[N+](=O)[O-]` [H2L, 5-chloro-3-(2-(2,4-dinitrophenyl)hydrazono)indolin-2-one], the IC50 in experiment [1] (IC50 spike RBD/ACE2 binding, WT RBD sequence) was 0.448 µM. Further, in experiment [2], the “fold difference in IC50 for any variant versus WT RBD” value is on record as not above 1.4 fold.

As for REGN10933, the IC50 in experiment [1] (read-out: IC50 spike RBD/ACE2 binding, WT RBD sequence) is 0.0013 µM.
